Tests used:
Ba/F3 ERBB2 YVMA = Ba/F3 ERBB2 YVMA (Homo sapiens, UniProt P04626, DUP772-775, cells depend on it); assay: Cell viability assay (CellTiter Glo) in Ba/F3 cells engineered to express ERBB2 YVMA; assay type: cell-based, mouse; conditions: Ba/F3 cells expressing human ERBB2 YVMA mutant, 72 hours, % viability, read-out: Ba/F3 ERBB2 YVMA IC50
In short: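 IL-3-independent mouse Ba/F3 line stably transduced with human ERBB2 YVMA, seeded at 3000 cells/well, exposed to serially diluted compound (≤0.1% DMSO) for 72 h at 37° C. ATP read by CellTiter Glo luminescence, normalised to DMSO and media-only controls; sigmoidal nonlinear regression fit.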

[1] = molecular target: T1, phosphorylated ERBB2 (pERBB2) (Homo sapiens, UniProt P04626); assay: Detection of phosphorylated ERBB2 (pERBB2) by ELISA in BT-474 cells; assay type: cell-based; conditions: four hour incubation with compound
T1 construct: endogenous in cells; host or cells: BT-474
T1 sequence (P04626 23-1255): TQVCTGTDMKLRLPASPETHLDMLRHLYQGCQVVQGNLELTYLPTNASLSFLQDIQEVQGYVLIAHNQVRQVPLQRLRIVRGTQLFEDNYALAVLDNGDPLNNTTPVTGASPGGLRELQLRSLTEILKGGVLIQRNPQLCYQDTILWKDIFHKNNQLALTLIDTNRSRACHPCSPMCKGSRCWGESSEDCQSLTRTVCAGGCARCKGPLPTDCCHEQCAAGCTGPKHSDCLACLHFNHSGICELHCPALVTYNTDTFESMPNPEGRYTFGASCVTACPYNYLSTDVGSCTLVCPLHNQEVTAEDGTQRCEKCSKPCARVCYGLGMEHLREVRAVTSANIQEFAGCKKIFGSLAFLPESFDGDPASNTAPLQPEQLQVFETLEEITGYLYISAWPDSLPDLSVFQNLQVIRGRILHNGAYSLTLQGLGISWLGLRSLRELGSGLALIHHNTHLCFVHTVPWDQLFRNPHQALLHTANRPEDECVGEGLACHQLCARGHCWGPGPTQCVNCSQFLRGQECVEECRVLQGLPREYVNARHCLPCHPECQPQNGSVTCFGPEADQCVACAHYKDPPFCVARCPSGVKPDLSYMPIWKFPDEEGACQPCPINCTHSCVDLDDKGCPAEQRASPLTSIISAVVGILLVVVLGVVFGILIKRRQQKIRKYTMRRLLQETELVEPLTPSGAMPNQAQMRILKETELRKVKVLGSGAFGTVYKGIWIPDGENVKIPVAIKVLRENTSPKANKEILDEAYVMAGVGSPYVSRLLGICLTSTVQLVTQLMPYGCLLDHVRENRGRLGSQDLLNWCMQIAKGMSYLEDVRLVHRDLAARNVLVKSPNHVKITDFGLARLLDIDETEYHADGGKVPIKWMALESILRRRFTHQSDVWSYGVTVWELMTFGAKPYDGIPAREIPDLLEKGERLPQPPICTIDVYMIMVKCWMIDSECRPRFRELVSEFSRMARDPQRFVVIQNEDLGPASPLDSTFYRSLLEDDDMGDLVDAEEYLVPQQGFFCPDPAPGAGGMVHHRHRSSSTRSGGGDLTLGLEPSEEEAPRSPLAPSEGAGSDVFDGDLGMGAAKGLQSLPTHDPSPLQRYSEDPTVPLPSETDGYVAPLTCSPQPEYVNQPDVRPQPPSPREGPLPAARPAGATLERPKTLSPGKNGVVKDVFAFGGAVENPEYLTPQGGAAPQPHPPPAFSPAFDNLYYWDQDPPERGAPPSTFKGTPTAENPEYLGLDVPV
In short: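 BT-474 cells treated 4 h at 37 °C, 5% CO2 with four-fold dilutions (10 μM to 0.01 nM final). Lysates analysed by ELISA for pERBB2, TMB read at OD 450 nm. % relative activity normalised to no-cell (low) and 0.1% DMSO-treated (high) controls.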

[2] = molecular target: T2, phosphorylated EGFR (pEGFR) (Homo sapiens, UniProt P00533); assay: Detection of phosphorylated EGFR (pEGFR) in EGF-stimulated A431 cells (AlphaLISA); assay type: cell-based; conditions: A431 cells (10% FBS), 4 hours incubation, EGF 30 ng/mL for 10 minutes
T2 construct: performed to measure phosphorylated EGFR levels using A431 cells; endogenous in cells; host or cells: A431
T2 sequence (P00533 25-1210): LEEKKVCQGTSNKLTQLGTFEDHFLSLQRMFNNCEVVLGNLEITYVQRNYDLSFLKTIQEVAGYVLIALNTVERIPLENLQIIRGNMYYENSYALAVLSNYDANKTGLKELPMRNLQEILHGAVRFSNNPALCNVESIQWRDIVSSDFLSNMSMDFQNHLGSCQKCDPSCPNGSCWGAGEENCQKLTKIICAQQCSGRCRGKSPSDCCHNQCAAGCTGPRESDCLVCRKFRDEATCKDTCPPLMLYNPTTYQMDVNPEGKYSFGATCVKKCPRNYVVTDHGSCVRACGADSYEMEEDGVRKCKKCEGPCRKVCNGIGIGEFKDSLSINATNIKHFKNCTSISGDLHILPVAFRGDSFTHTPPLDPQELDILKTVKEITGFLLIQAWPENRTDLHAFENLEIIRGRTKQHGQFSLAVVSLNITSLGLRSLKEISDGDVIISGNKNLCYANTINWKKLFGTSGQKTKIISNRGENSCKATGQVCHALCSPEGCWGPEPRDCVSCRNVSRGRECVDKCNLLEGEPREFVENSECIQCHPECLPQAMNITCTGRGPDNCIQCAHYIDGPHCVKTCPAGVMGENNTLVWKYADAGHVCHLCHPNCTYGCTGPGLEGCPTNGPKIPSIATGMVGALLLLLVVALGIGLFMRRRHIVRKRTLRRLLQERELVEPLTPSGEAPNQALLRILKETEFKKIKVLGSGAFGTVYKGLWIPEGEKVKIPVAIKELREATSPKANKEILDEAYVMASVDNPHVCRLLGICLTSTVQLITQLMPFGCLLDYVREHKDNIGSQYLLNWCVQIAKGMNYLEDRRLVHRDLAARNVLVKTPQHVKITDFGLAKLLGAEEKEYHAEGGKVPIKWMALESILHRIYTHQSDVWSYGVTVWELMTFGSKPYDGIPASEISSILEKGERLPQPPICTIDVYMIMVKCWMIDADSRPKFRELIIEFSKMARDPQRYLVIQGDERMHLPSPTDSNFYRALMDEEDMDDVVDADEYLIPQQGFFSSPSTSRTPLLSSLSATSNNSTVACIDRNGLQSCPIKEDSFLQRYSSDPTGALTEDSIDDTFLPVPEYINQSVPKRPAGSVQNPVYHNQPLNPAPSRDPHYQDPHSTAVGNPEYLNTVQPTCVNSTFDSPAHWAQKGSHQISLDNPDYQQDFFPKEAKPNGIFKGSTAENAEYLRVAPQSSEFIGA
In short: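 Cells in 10% FBS treated with compound 4 h at 37° C., then stimulated 10 min with 30 ng/mL EGF, lysed, and pEGFR measured by AlphaLISA. Inhibition normalized to DMSO and staurosporine controls; IC50 from four-parameter logistic fit.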

Chain of Ba/F3 ERBB2 YVMA (P04626 with tags, fused parts or gaps DUP772-775): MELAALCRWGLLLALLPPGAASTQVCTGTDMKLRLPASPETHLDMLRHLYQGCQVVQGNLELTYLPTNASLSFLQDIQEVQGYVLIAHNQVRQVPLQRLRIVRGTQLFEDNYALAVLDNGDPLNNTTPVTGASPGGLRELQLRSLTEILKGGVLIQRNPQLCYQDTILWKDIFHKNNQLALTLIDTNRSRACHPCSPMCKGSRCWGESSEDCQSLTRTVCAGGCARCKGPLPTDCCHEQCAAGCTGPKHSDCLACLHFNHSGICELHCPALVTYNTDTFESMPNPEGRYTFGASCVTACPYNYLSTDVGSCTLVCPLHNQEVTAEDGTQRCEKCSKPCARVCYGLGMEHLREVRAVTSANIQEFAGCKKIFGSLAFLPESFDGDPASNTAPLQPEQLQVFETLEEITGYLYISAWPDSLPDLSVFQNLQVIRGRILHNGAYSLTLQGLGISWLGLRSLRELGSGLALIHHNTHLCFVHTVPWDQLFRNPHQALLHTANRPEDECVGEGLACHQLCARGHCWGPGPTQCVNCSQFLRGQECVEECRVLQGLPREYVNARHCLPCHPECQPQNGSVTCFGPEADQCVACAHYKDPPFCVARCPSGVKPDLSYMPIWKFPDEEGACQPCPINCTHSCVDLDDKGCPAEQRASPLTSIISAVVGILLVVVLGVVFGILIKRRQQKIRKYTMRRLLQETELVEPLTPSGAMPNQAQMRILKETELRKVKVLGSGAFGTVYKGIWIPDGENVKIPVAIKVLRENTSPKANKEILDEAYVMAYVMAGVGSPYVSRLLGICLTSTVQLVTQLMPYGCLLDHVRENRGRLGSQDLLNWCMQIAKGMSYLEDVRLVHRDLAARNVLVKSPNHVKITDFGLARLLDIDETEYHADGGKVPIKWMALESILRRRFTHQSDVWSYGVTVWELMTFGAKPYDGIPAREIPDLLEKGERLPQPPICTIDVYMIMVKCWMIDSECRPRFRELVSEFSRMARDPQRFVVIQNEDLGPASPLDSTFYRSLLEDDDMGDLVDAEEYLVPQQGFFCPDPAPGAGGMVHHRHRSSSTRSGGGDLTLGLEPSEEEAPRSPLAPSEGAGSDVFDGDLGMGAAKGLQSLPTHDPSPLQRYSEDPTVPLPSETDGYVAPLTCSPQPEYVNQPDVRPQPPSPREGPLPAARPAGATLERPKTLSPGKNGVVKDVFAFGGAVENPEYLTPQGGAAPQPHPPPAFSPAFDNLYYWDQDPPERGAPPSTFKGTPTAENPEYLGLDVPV

SMILES	GI50 (Ba/F3 ERBB2 YVMA)	IC50 [1]	IC50 [2]
C=CC(=O)N1CCN(c2ccc3ncnc(Nc4ccc(Cc5ccn6ncnc6c5)c(C)c4)c3n2)C[C@H]1C [Compound 51, 1-[(2R)-2-methyl-4-{4-[(3-methyl-4-{[1,2,4]triazolo[1,5-a]pyridin-7-ylmethyl}phenyl)amino]pyrido[3,2-d]pyrimidin-6-yl}piperazin-1-yl]prop-2-en-1-one]	5.71 nM	20.9 nM	1670 nM
CC#CC(=O)N1CCN(c2ccc3ncnc(Nc4ccc(O[C@@H]5CCCOC5)c(C)c4)c3n2)CC1 [Compound 32, 1-{4-[4-({3-methyl-4-[(3R)-oxan-3-yloxy]phenyl}amino)pyrido[3,2-d]pyrimidin-6-yl]piperazin-1-yl}but-2-yn-1-one]	288 nM	334 nM	3820 nM
C=CC(=O)N1CCN(c2cc3c(Nc4ccc(Oc5ccn6ncnc6c5)c(C)c4)ncnc3cn2)C[C@H]1C [Compound 55, 1-[(2R)-2-methyl-4-{4-[(3-methyl-4-{[1,2,4]triazolo[1,5-a]pyridin-7-yloxy}phenyl)amino]pyrido[3,4-d]pyrimidin-6-yl}piperazin-1-yl]prop-2-en-1-one]	18.5 nM	12 nM	2580 nM
C=CC(=O)N1CCN(c2ccc3ncnc(Nc4ccc(Cc5ccn6ncnc6c5)c(C)c4)c3n2)CC1(C)C [Compound 131, 1-(4-(4-((4-([1,2,4]triazolo[1,5-a]pyridin-7-ylmethyl)-3-methylphenyl)amino)pyrido[3,2-d]pyrimidin-6-yl)-2,2-dimethylpiperazin-1-yl)prop-2-en-1-one]	20 nM	30 nM	2390 nM
C=CC(=O)N1CCC2(CC1)CN(c1ccc3ncnc(Nc4ccc(Oc5ccn6ncnc6c5)c(C)c4)c3n1)C2 [Compound 19, 1-(2-{4-[(3-methyl-4-{[1,2,4]triazolo[1,5-a]pyridin-7-yloxy}phenyl)amino]pyrido[3,2-d]pyrimidin-6-yl}-2,7-diazaspiro[3.5]nonan-7-yl)prop-2-en-1-one]	176 nM	98 nM	> 10000 nM
C=CC(=O)N1CCN(c2cc3c(Nc4ccc(CN5CCn6ncnc6C5)c(C)c4)ncnc3cn2)CC1 [Compound 99, 1-(4-{4-[(3-methyl-4-{5H,6H,8H-[1,2,4]triazolo[1,5-a]pyrazin-7-ylmethyl}phenyl)amino]pyrido[3,4-d]pyrimidin-6-yl}piperazin-1-yl)prop-2-en-1-one]	> 500 nM	227 nM	> 10000 nM
Cc1cc(Nc2ncnc3ccc(N4CCN(C(=O)/C=C/CN(C)C)C[C@@H]4C)nc23)ccc1Cc1ccn2ncnc2c1 [Compound 105, (2E)-4-(dimethylamino)-1-[(3S)-3-methyl-4-{4-[(3-methyl-4-{[1,2,4]triazolo[1,5-a]pyridin-7-ylmethyl}phenyl)amino]pyrido[3,2-d]pyrimidin-6-yl}piperazin-1-yl]but-2-en-1-one]	145 nM	43.9 nM	> 10000 nM
CC#CC(=O)N1CCN(c2cc3c(Nc4ccc(Oc5ccc6c(c5)ncn6C)c(C)c4)ncnc3cn2)C[C@H]1C [Compound 71, 1-[(2R)-2-methyl-4-[4-({3-methyl-4-[(1-methyl-1,3-benzodiazol-5-yl)oxy]phenyl}amino)pyrido[3,4-d]pyrimidin-6-yl]piperazin-1-yl]but-2-yn-1-one]	20.4 nM	22 nM	1020 nM
C=CC(=O)N1C2CCC1CN(c1ccc3ncnc(Nc4ccc(Oc5ccn6ncnc6c5)c(C)c4)c3n1)C2 [Compound 18, 1-(3-{4-[(3-methyl-4-{[1,2,4]triazolo[1,5-a]pyridin-7-yloxy}phenyl)amino]pyrido[3,2-d]pyrimidin-6-yl}-3,8-diazabicyclo[3.2.1]octan-8-yl)prop-2-en-1-one]	6.26 nM	13.4 nM	293 nM
